# Measured values as given in paper PMC6811539, “Minute-scale persistence of a GPCR conformation state triggered by non-cognate G protein interactions primes signaling” (Nature Communications, 2019).
# Test system: β2-AR-Sp SPASM sensor
# Assay: ΔFRET assay of β2-AR activation on native membranes with β2-AR-Sp SPASM sensor
# Format: biochemical, human
# Parameters: mean ΔFRET: unit of the concentration uncertain
# Settings: for mean ΔFRET: SuppFig 3c
# Protocol: Membranes were prepared following a published protocol[56] from HEK293T cells transiently transfected with the appropriate DNA (β2-AR-mCherry, β2-mCerulean, V1AR-mCherry, β2-AR-ICL3 or β2-AR-Sp). Cells were collected in culture medium and washed twice with PBS by centrifugation (300 × g, 3 min, ambient temperature). Cell pellets were incubated with an ice-cold hypotonic buffer (solution A: 10 mM HEPES, 1 mM EGTA, pH 7.2) for 30 min on ice. Cells in solution A were lysed gently (30 strokes) in a chilled Dounce homogenizer in the presence of 1.5 μg/mL aprotinin, 1.5 μg/mL leupeptin, 5 μg/mL phenylmethylsulfonyl fluoride (PMSF) and 1 mM dithiothreitol (DTT). Nuclei and intact cells were eliminated by centrifugation at 1000 × g, 5 min, 4 °C. All subsequent centrifugation steps were performed in a TLA100.4 rotor at 135,000 × g, 30 min, 4 °C. Native membranes were washed with 20 mM HEPES, 100 mM NaCl, 5 mM MgCl2, 100 μM GDP in the presence of 1.5 μg/mL aprotinin, 1.5 μg/mL leupeptin, 5 μg/mL PMSF, and 1 mM DTT, and were stored in the same buffer with 12% sucrose. For experiments to monitor Gα peptide–GPCR interactions using ΔFRET response, the native β2-AR-Sp sensor-containing membranes were washed in buffer containing 20 mM HEPES, 100 mM NaCl, 45 mM KCl, 5 mM MgCl2, and 100 μM GDP, and were stored in sucrose (12% w/v)-supplemented wash buffer.
# Native membranes were collected from HEK293T cells expressing either the β2-AR-Sp SPASM sensor or the β2-AR-ICL3 conformational sensor. Frozen membranes were thawed and handled on ice. The membranes were resuspended by sonication to a concentration of 100 nM sensor (1 × 10^6 mCer cps) in 20 mM HEPES, 100 mM NaCl, 45 mM KCl, 5 mM MgCl2, pH 7.4 (ΔFRET buffer minus Ca^2+) in the presence of 1.5 μg/mL aprotinin, 1.5 μg/mL leupeptin, and 5 μg/mL PMSF. Indicated peptides were added to 30 μM (50 μM for PC-Qp) in a sample volume of 1 mL. The sample was aliquoted as 90 μl into ten replicate tubes—five labeled ISO and five buffer. Agonist solution (ISO) containing 1 mM Isoproterenol and 1 mM ascorbic acid was prepared in ΔFRET buffer minus Ca^2+. […]
substance,measurement,setting,value
"DTENIRFVFAAVKDTILQLNLKE(Anp)NLV [PC-Qp, photocleavable Qp, Y356 replaced by Anp]",mean ΔFRET,PCQp (30 µM),0.018
same,mean ΔFRET,PCQp (50 µM),0.024
same,duration of sustained FRET response after peptide removal,"β2-AR-Sp sensor, ISO 100 μM, depletion (bioQp) or photocleavage (PC-Qp)",120 s
